Measured values published in PubChem BioAssay AID1259407 (Chemical Carcinogenesis Research Information System (CCRIS), 2018).
Activity calls are given as the source filed them. The rule behind the calls is not given here.

System: CCRIS mutagenicity, Ames/micronucleus/aberration tests
Assay: CCRIS mutagenicity studies
[1] = Test System: AMES SALMONELLA TYPHIMURIUM, Strain/Indicator: TA98, Metabolic Activation: HAMSTER, LIVER, S-9, AROCLOR 1254, Method: STANDARD PLATE
[2] = Test System: AMES SALMONELLA TYPHIMURIUM, Strain/Indicator: TA98, Metabolic Activation: NONE, Method: STANDARD PLATE
[3] = Test System: AMES SALMONELLA TYPHIMURIUM, Strain/Indicator: TA98, Metabolic Activation: RAT, LIVER, S-9, AROCLOR 1254, Method: STANDARD PLATE
[4] = Test System: AMES SALMONELLA TYPHIMURIUM, Strain/Indicator: TA100, Metabolic Activation: HAMSTER, LIVER, S-9, AROCLOR 1254, Method: STANDARD PLATE
[5] = Test System: AMES SALMONELLA TYPHIMURIUM, Strain/Indicator: TA100, Metabolic Activation: NONE, Method: STANDARD PLATE
[6] = Test System: AMES SALMONELLA TYPHIMURIUM, Strain/Indicator: TA100, Metabolic Activation: RAT, LIVER, S-9, AROCLOR 1254, Method: STANDARD PLATE
[7] = Test System: AMES SALMONELLA TYPHIMURIUM, Strain/Indicator: TA1535, Metabolic Activation: HAMSTER, LIVER, S-9, AROCLOR 1254, Method: STANDARD PLATE
[8] = Test System: AMES SALMONELLA TYPHIMURIUM, Strain/Indicator: TA1535, Metabolic Activation: NONE, Method: STANDARD PLATE
[9] = Test System: AMES SALMONELLA TYPHIMURIUM, Strain/Indicator: TA1535, Metabolic Activation: RAT, LIVER, S-9, AROCLOR 1254, Method: STANDARD PLATE
[10] = Test System: AMES SALMONELLA TYPHIMURIUM, Strain/Indicator: TA1537, Metabolic Activation: HAMSTER, LIVER, S-9, AROCLOR 1254, Method: STANDARD PLATE
[11] = Test System: AMES SALMONELLA TYPHIMURIUM, Strain/Indicator: TA1537, Metabolic Activation: NONE, Method: STANDARD PLATE
[12] = Test System: AMES SALMONELLA TYPHIMURIUM, Strain/Indicator: TA1537, Metabolic Activation: RAT, LIVER, S-9, AROCLOR 1254, Method: STANDARD PLATE
[13] = Test System: AMES SALMONELLA TYPHIMURIUM, Strain/Indicator: TA1538, Metabolic Activation: HAMSTER, LIVER, S-9, AROCLOR 1254, Method: STANDARD PLATE
[14] = Test System: AMES SALMONELLA TYPHIMURIUM, Strain/Indicator: TA1538, Metabolic Activation: NONE, Method: STANDARD PLATE
[15] = Test System: AMES SALMONELLA TYPHIMURIUM, Strain/Indicator: TA1538, Metabolic Activation: RAT, LIVER, S-9, AROCLOR 1254, Method: STANDARD PLATE
[16] = Test System: MOUSE LYMPHOMA, Strain/Indicator: L5178Y (TK+/TK-), Metabolic Activation: NONE, Method: SUSPENSION/PLATE
[17] = Test System: MOUSE LYMPHOMA, Strain/Indicator: L5178Y (TK+/TK-), Metabolic Activation: RAT, LIVER, S-9, AROCLOR 1254, Method: SUSPENSION/PLATE

Nc1ccc(S(=O)(=O)Nc2nccs2)cc1
mutagenic call [1]: inactive; negative | mutagenic call [2]: inactive; negative | mutagenic call [3]: inactive; negative | mutagenic call [4]: inactive; negative | mutagenic call [5]: inactive; negative | mutagenic call [6]: inactive; negative | mutagenic call [7]: inactive; negative | mutagenic call [8]: inactive; negative | mutagenic call [9]: inactive; negative | mutagenic call [10]: inactive; negative | mutagenic call [11]: inactive; negative | mutagenic call [12]: inactive; negative | mutagenic call [13]: inactive; negative | mutagenic call [14]: inactive; negative | mutagenic call [15]: inactive; negative | mutagenic call [16]: inactive; negative. reevaluation of results: negative | mutagenic call [17]: inactive; negative. reevaluation of results: negative

O=C(O)/C=C/c1ccc([N+](=O)[O-])o1
mutagenic call (Test System: AMES SALMONELLA TYPHIMURIUM, Strain/Indicator: TA98, Metabolic Activation: NONE, Method: PREINCUBATION): active; positive

CC1(S(=O)(=O)O)CC(=O)c2ccccc2C1=O (stereo not drawn) (tested in a mixture with another compound)
mutagenic call (Test System: AMES SALMONELLA TYPHIMURIUM, Strain/Indicator: TA98, Metabolic Activation: NONE, Method: SPIRAL ASSAY): inactive; negative | mutagenic call [2]: inactive; negative | mutagenic call (Test System: AMES SALMONELLA TYPHIMURIUM, Strain/Indicator: TA98, Metabolic Activation: RAT, LIVER, S-9, AROCLOR 1254, Method: SPIRAL ASSAY): inactive; negative | mutagenic call [3]: active; positive | mutagenic call (Test System: AMES SALMONELLA TYPHIMURIUM, Strain/Indicator: TA100, Metabolic Activation: NONE, Method: SPIRAL ASSAY): inactive; negative | mutagenic call [5]: inactive; negative | mutagenic call (Test System: AMES SALMONELLA TYPHIMURIUM, Strain/Indicator: TA100, Metabolic Activation: RAT, LIVER, S-9, AROCLOR 1254, Method: SPIRAL ASSAY): inactive; negative | mutagenic call [6]: inactive; negative | mutagenic call (Test System: AMES SALMONELLA TYPHIMURIUM, Strain/Indicator: TA1535, Metabolic Activation: NONE, Method: SPIRAL ASSAY): inactive; negative | mutagenic call [8]: inactive; negative | mutagenic call (Test System: AMES SALMONELLA TYPHIMURIUM, Strain/Indicator: TA1535, Metabolic Activation: RAT, LIVER, S-9, AROCLOR 1254, Method: SPIRAL ASSAY): inactive; negative | mutagenic call [9]: inactive; negative | mutagenic call (Test System: AMES SALMONELLA TYPHIMURIUM, Strain/Indicator: TA1537, Metabolic Activation: NONE, Method: SPIRAL ASSAY): inactive; negative | mutagenic call [11]: inactive; negative | mutagenic call (Test System: AMES SALMONELLA TYPHIMURIUM, Strain/Indicator: TA1537, Metabolic Activation: RAT, LIVER, S-9, AROCLOR 1254, Method: SPIRAL ASSAY): inactive; negative | mutagenic call [12]: inactive; negative

N#CCCNCCC#N
mutagenic call [1]: inactive; negative | mutagenic call [2]: inactive; negative | mutagenic call [3]: inactive; negative | mutagenic call [4]: inactive; negative | mutagenic call [5]: inactive; negative | mutagenic call [6]: inactive; negative | mutagenic call [7]: inactive; negative | mutagenic call [8]: inactive; negative | mutagenic call [9]: inactive; negative | mutagenic call [10]: inactive; negative | mutagenic call [11]: inactive; negative | mutagenic call [12]: inactive; negative | mutagenic call [13]: inactive; negative | mutagenic call [14]: inactive; negative | mutagenic call [15]: inactive; negative | mutagenic call [16]: inactive; negative. reevaluation of results: negative | mutagenic call [17]: active; positive. reevaluation of results: equivocal

CC(=O)OC[C@H]1OC(OC(C)=O)[C@H](NC(=O)N(C)N=O)[C@@H](OC(C)=O)[C@@H]1OC(C)=O (stereo partly drawn)
mutagenic call (Test System: CHINESE HAMSTER V-79, Strain/Indicator: V-79/8-AZAGUANINE, Metabolic Activation: NONE, Method: STANDARD PLATE): active; positive

COC(=O)CCl
mutagenic call (Test System: AMES SALMONELLA TYPHIMURIUM, Strain/Indicator: TA102, Metabolic Activation: NONE, Method: STANDARD PLATE): inactive; negative | mutagenic call (Test System: AMES SALMONELLA TYPHIMURIUM, Strain/Indicator: TA2638, Metabolic Activation: NONE, Method: STANDARD PLATE): inactive; negative | mutagenic call (Test System: E. COLI, Strain/Indicator: WP2 (PKM101), Metabolic Activation: NONE, Method: STANDARD PLATE): inactive; negative | mutagenic call (Test System: E. COLI, Strain/Indicator: WP2 UVRA (PKM101), Metabolic Activation: NONE, Method: STANDARD PLATE): inactive; negative

Nc1cc([N+](=O)[O-])c(CO)c([N+](=O)[O-])c1
mutagenic call (End Point: In vitro chromosomal aberrations, Test System: V79 Chinese hamster fibroblasts, Metabolic Activation: None): inactive; negative | mutagenic call (Test System: Ames Salmonella typhimurium, Strain/Indicator: TA98, Metabolic Activation: None, Method: Standard plate): active; positive | mutagenic call (Test System: Ames Salmonella typhimurium, Strain/Indicator: TA98, Metabolic Activation: Rat, Liver, S-9, Method: Standard plate): active; positive | mutagenic call (Test System: Ames Salmonella typhimurium, Strain/Indicator: TA98NR, Metabolic Activation: None, Method: Standard plate): active; positive, ta98nr is the nitroreductase-deficient derivative of ta98. | mutagenic call (Test System: Ames Salmonella typhimurium, Strain/Indicator: TA100, Metabolic Activation: None, Method: Standard plate): active; positive | mutagenic call (Test System: Ames Salmonella typhimurium, Strain/Indicator: TA100, Metabolic Activation: Rat, Liver, S-9, Method: Standard plate): active; positive

Cn1cc2ccc([N+](=O)[O-])cc2n1
mutagenic call [2]: active; positive

CS(=O)(=O)c1ccc(Cl)cc1
mutagenic call [2]: inactive; negative | mutagenic call [3]: inactive; negative | mutagenic call [5]: inactive; negative | mutagenic call [6]: inactive; negative | mutagenic call [8]: inactive; negative | mutagenic call [9]: inactive; negative | mutagenic call [11]: inactive; negative | mutagenic call [12]: inactive; negative | mutagenic call [14]: inactive; negative | mutagenic call [15]: inactive; negative
